Several values for one entry are separate records, joined by “and”; a condition that tells them apart may be missing. Identical values can stand only once.
Assay: xn = mol fraction of the nth substance listed

C=C(C)C(=O)OC + CCCCOCCO
viscosity [mPa·s], 101.3 kPa
Conditions | 298.15 K | 308.15 K
x1 = 0.0589 | 2.45 | 1.998
x1 = 0.1467 | 2.063 | 1.704
x1 = 0.2571 | 1.682 | 1.408
x1 = 0.3556 | 1.416 | 1.196
x1 = 0.4555 | 1.201 | 1.021
x1 = 0.5016 | 1.117 | 0.952
x1 = 0.5559 | 1.028 | 0.878
x1 = 0.6734 | 0.868 | 0.742
x1 = 0.7556 | 0.778 | 0.664
x1 = 0.857 | 0.686 | 0.583
x1 = 0.9547 | 0.613 | 0.518

CCCC[n+]1ccn(C)c1.O=C([O-])C(F)(F)F + O
Conditions | viscosity [mPa·s]
298.15 K, 101 kPa, x2 = 0.7927 | 9.03

CCCC[P+](C)(CCCC)CCCC.COS(=O)(=O)[O-] + CN1CCCC1=O
101 kPa
Conditions | viscosity [mPa·s]
293.15 K, x1 = 0.2318 | 67.31
293.15 K, x1 = 0.6014 | 285.4
293.15 K, x1 = 0.7129 | 437.9
293.15 K, x1 = 0.8086 | 533
293.15 K, x1 = 0.9022 | 633.1
293.15 K, x1 = 0.9468 | 676.8
298.15 K, x1 = 0.2318 | 38.93
298.15 K, x1 = 0.2971 | 50.57
298.15 K, x1 = 0.3764 | 80.09
298.15 K, x1 = 0.7129 | 294.9
298.15 K, x1 = 0.8086 | 370.8
298.15 K, x1 = 0.8515 | 411.3
298.15 K, x1 = 0.9022 | 451.1
298.15 K, x1 = 0.9468 | 487
303.15 K, x1 = 0.0914 | 4.938
303.15 K, x1 = 0.1311 | 7.781
303.15 K, x1 = 0.2971 | 25.25
303.15 K, x1 = 0.3764 | 40.12
303.15 K, x1 = 0.4752 | 65.25
303.15 K, x1 = 0.8086 | 262.4
303.15 K, x1 = 0.8515 | 295.9
303.15 K, x1 = 0.9022 | 328.3
303.15 K, x1 = 0.9468 | 353.5
308.15 K, x1 = 0.0914 | 2.514
308.15 K, x1 = 0.1311 | 3.429
308.15 K, x1 = 0.1773 | 6.412
308.15 K, x1 = 0.2318 | 8.924
308.15 K, x1 = 0.4752 | 30.51
308.15 K, x1 = 0.6014 | 66.52
308.15 K, x1 = 0.9468 | 268.4
313.15 K, x1 = 0.1311 | 3.214
313.15 K, x1 = 0.1773 | 4.514
313.15 K, x1 = 0.2318 | 6.789
313.15 K, x1 = 0.7129 | 95.25
318.15 K, x1 = 0.1311 | 4.512
318.15 K, x1 = 0.1773 | 6.412
318.15 K, x1 = 0.2318 | 7.124
318.15 K, x1 = 0.6014 | 31.78
318.15 K, x1 = 0.7129 | 72.62
323.15 K, x1 = 0.0914 | 2.515
323.15 K, x1 = 0.1311 | 3.845
323.15 K, x1 = 0.1773 | 5.672
323.15 K, x1 = 0.7129 | 59.09
323.15 K, x1 = 0.8086 | 88.33

CC(=O)Oc1ccccc1 + CCCCCOC(C)=O
Conditions | viscosity [mPa·s]
298.15 K, 101 kPa, x1 = 0.5 | 0.9319

C[N+](C)(C)CCC[N+]1(C)CCCCC1.N#C[N-]C#N.N#C[N-]C#N + CCO
viscosity [mPa·s], 100 kPa
Conditions | 293.15 K | 303.15 K | 323.15 K
x1 = 0.5002 | 280.5 | – | 70.55
x1 = 0.7998 | – | 828.4 | –

C=C(C)C(=O)OC + CC(C)(C)O
viscosity [mPa·s], 101.3 kPa
Conditions | 298.15 K | 308.15 K
x1 = 0.0571 | 3.463 | 2.088
x1 = 0.1587 | 2.316 | 1.51
x1 = 0.256 | 1.652 | 1.15
x1 = 0.3589 | 1.217 | 0.898
x1 = 0.4561 | 0.956 | 0.738
x1 = 0.4983 | 0.873 | 0.686
x1 = 0.5567 | 0.782 | 0.627
x1 = 0.6571 | 0.672 | 0.555
x1 = 0.7563 | 0.608 | 0.511
x1 = 0.841 | 0.58 | 0.491
x1 = 0.9335 | 0.573 | 0.486

[Sn] + [Ga]
323 K, 100 kPa
Conditions | viscosity [mPa·s]
x1 = 0.085 | 1.693
x1 = 0.164 | 2.223
x1 = 0.37 | 3.637
x1 = 0.638 | 5.381
x1 = 0.841 | 6.576

O=C(c1ccccc1)N(O)c1ccccc1 + CS(C)=O
101 kPa
Conditions | viscosity [mPa·s]
308.15 K, x1 = 0.1408 | 2.065
318.15 K, x1 = 0.4694 | 1.565

ClCCCCCCCl + Cc1ccccc1C
viscosity [mPa·s], 101 kPa
Conditions | x1 = 0.09207 | x1 = 0.1778 | x1 = 0.2577 | x1 = 0.3658 | x1 = 0.469 | x1 = 0.5509 | x1 = 0.6697 | x1 = 0.7481 | x1 = 0.8853
308.15 K | 0.731 | 0.797 | 0.859 | 0.954 | 1.049 | 1.131 | 1.253 | 1.336 | 1.493
313.15 K | 0.689 | 0.75 | 0.809 | 0.901 | 0.994 | 1.073 | 1.191 | 1.272 | 1.419
318.15 K | 0.652 | 0.708 | 0.767 | 0.848 | 0.932 | 1.001 | 1.1 | 1.169 | 1.287

CC(O)CNCC(C)O (configuration not stated) + O
viscosity [mPa·s]
Conditions | 293.15 K | 298.15 K | 303.15 K | 308.15 K | 313.15 K | 318.15 K | 323.15 K
101 kPa, x1 = 0.023 | – | – | – | – | – | 1.095 | –
101 kPa, x1 = 0.03 | – | – | – | 1.695 | – | – | –
101.3 kPa, x1 = 0.0071 | 1.261 | 1.097 | 0.958 | 0.834 | 0.738 | – | 0.597
101.3 kPa, x1 = 0.0148 | 1.61 | 1.37 | 1.211 | 1.046 | 0.914 | – | 0.775
101.3 kPa, x1 = 0.0329 | 2.803 | 2.363 | 2.08 | 1.803 | 1.54 | – | 1.2

C=C(C)C(=O)OC + CCCCCCCO
viscosity [mPa·s], 101.3 kPa
Conditions | 298.15 K | 308.15 K
x1 = 0.0526 | 4.782 | 3.544
x1 = 0.1258 | 3.728 | 2.828
x1 = 0.2484 | 2.538 | 1.991
x1 = 0.3455 | 1.926 | 1.546
x1 = 0.4471 | 1.483 | 1.213
x1 = 0.5009 | 1.307 | 1.078
x1 = 0.5615 | 1.143 | 0.95
x1 = 0.6456 | 0.965 | 0.81
x1 = 0.7444 | 0.811 | 0.685
x1 = 0.8476 | 0.695 | 0.588
x1 = 0.9438 | 0.618 | 0.522

C=C(C)C(=O)OC + ClCCCl
303.15 K, 101 kPa
Conditions | viscosity [mPa·s]
x1 = 0.1012 | 0.6868
x1 = 0.1978 | 0.6544
x1 = 0.3975 | 0.6068
x1 = 0.4985 | 0.5867
x1 = 0.6234 | 0.5632
x1 = 0.8713 | 0.5284

Cc1cccc(C)c1O + C[N+](C)(C)CCO.[Cl-]
298.15 K, 101.33 kPa
Conditions | viscosity
x1 = 0.7 | 151.2 mPa·s
x1 = 0.8 | 86.79 mPa·s and 61.87 mPa·s and 54.12 mPa·s
x1 = 0.9 | 50.22 mPa·s

C=C(C)C(=O)OC + CC(C)CO
viscosity [mPa·s], 101.3 kPa
Conditions | 298.15 K | 308.15 K
x1 = 0.0547 | 2.74 | 2.077
x1 = 0.1398 | 2.067 | 1.621
x1 = 0.2311 | 1.576 | 1.274
x1 = 0.33 | 1.22 | 1.012
x1 = 0.4577 | 0.927 | 0.788
x1 = 0.5037 | 0.852 | 0.73
x1 = 0.5427 | 0.799 | 0.687
x1 = 0.6552 | 0.686 | 0.595
x1 = 0.7288 | 0.638 | 0.553
x1 = 0.8409 | 0.594 | 0.512
x1 = 0.9341 | 0.581 | 0.495

C=C(C)C(=O)OC + c1ccccc1
303.15 K, 101 kPa
Conditions | viscosity [mPa·s]
x1 = 0.1019 | 0.5507
x1 = 0.198 | 0.543
x1 = 0.4005 | 0.5273
x1 = 0.4996 | 0.522
x1 = 0.5998 | 0.519
x1 = 0.8001 | 0.5141
x1 = 0.896 | 0.5142

CC1(c2ccccc2)OC1C#N (configuration not stated) + ClC(Cl)(Cl)Cl
101 kPa, x1 = 0.024
Conditions | viscosity [mPa·s]
293.15 K | 1.041
298.15 K | 0.964
303.15 K | 0.902
313.15 K | 0.8
323.15 K | 0.723

Reference: the CheMixHub viscosity set
